# In US20170182033A1, “PHARMACEUTICAL COMPOSITIONS FOR EXTENDED RELEASE OF OXYCODONE AND ACETAMINOPHEN RESULTING IN A QUICK ONSET AND PROLONGED PERIOD OF ANALGESIA” (priority 2011, published 2017):
# Legend:
# [1] = Ethanol release testing at 100 rpm paddle speed (Example 29); assay type: physicochemical; details: release from the formulation
# hepatic GSH = details: mice; 100 mg/kg to 600 mg/kg; cited from earlier work
smiles,measurement,setting,value
CC(=O)Nc1ccc(O)cc1 [acetaminophen],"Percent Release, Mean","[1]; 0% Ethanol, 15 Min",52.2%
same,"Percent Release, Mean","[1]; 0% Ethanol, 30 Min",54.6%
same,"Percent Release, Mean","[1]; 0% Ethanol, 45 Min",56.8%
same,"Percent Release, Mean","[1]; 0% Ethanol, 60 Min",58.8%
same,"Percent Release, Mean","[1]; 0% Ethanol, 75 Min",60.8%
same,"Percent Release, Mean","[1]; 0% Ethanol, 90 Min",62.6%
same,"Percent Release, Mean","[1]; 0% Ethanol, 105 Min",64.3%
same,"Percent Release, Mean","[1]; 0% Ethanol, 120 Min",66.0%
same,"Percent Release, Mean","[1]; 0% Ethanol, 240 Min",78.6%
same,"Percent Release, Mean","[1]; 0% Ethanol, 480 Min",95.5%
same,"Percent Release, Mean","[1]; 5% Ethanol, 15 Min",52.6%
same,"Percent Release, Mean","[1]; 5% Ethanol, 30 Min",55.1%
same,"Percent Release, Mean","[1]; 5% Ethanol, 45 Min",57.1%
same,"Percent Release, Mean","[1]; 5% Ethanol, 60 Min",58.9%
same,"Percent Release, Mean","[1]; 5% Ethanol, 75 Min",60.7%
same,"Percent Release, Mean","[1]; 5% Ethanol, 90 Min",62.3%
same,"Percent Release, Mean","[1]; 5% Ethanol, 105 Min",63.9%
same,"Percent Release, Mean","[1]; 5% Ethanol, 120 Min",65.5%
same,"Percent Release, Mean","[1]; 5% Ethanol, 240 Min",77.2%
same,"Percent Release, Mean","[1]; 5% Ethanol, 480 Min",94.4%
same,"Percent Release, Mean","[1]; 10% Ethanol, 15 Min",51.7%
same,"Percent Release, Mean","[1]; 10% Ethanol, 30 Min",54.1%
same,"Percent Release, Mean","[1]; 10% Ethanol, 45 Min",56.0%
same,"Percent Release, Mean","[1]; 10% Ethanol, 60 Min",57.8%
same,"Percent Release, Mean","[1]; 10% Ethanol, 75 Min",59.5%
same,"Percent Release, Mean","[1]; 10% Ethanol, 90 Min",61.1%
same,"Percent Release, Mean","[1]; 10% Ethanol, 105 Min",62.6%
same,"Percent Release, Mean","[1]; 10% Ethanol, 120 Min",64.1%
same,"Percent Release, Mean","[1]; 10% Ethanol, 240 Min",75.5%
same,"Percent Release, Mean","[1]; 10% Ethanol, 480 Min",93.5%
same,"Percent Release, Mean","[1]; 20% Ethanol, 15 Min",50.2%
same,"Percent Release, Mean","[1]; 20% Ethanol, 30 Min",53.4%
same,"Percent Release, Mean","[1]; 20% Ethanol, 45 Min",55.5%
same,"Percent Release, Mean","[1]; 20% Ethanol, 60 Min",57.3%
same,"Percent Release, Mean","[1]; 20% Ethanol, 75 Min",59.0%
same,"Percent Release, Mean","[1]; 20% Ethanol, 90 Min",60.5%
same,"Percent Release, Mean","[1]; 20% Ethanol, 105 Min",61.9%
same,"Percent Release, Mean","[1]; 20% Ethanol, 120 Min",63.3%
same,"Percent Release, Mean","[1]; 20% Ethanol, 240 Min",76.0%
same,"Percent Release, Mean","[1]; 20% Ethanol, 480 Min",91.9%
same,"Percent Release, Mean","[1]; 40% Ethanol, 15 Min",16.7%
same,"Percent Release, Mean","[1]; 40% Ethanol, 30 Min",30.4%
same,"Percent Release, Mean","[1]; 40% Ethanol, 45 Min",38.5%
same,"Percent Release, Mean","[1]; 40% Ethanol, 60 Min",43.1%
same,"Percent Release, Mean","[1]; 40% Ethanol, 75 Min",46.1%
same,"Percent Release, Mean","[1]; 40% Ethanol, 90 Min",48.3%
same,"Percent Release, Mean","[1]; 40% Ethanol, 105 Min",49.8%
same,"Percent Release, Mean","[1]; 40% Ethanol, 120 Min",51.1%
same,"Percent Release, Mean","[1]; 40% Ethanol, 240 Min",60.8%
same,"Percent Release, Mean","[1]; 40% Ethanol, 480 Min",77.2%
same,Onset of circulating hepatic GSH changes after administration,hepatic GSH,≤ 15 min
